Entries after “also recorded” stand apart in the source; their conditions may differ. Where two headings read alike, the source gives them in different places.
Assays:
[1] = system: CSES2 human embryonic stem cells; test: CellTiter-Glo luminescent cell viability screen, CSES2; type: cell-based; conditions: for inhibition at 20 µM: pluripotent stem cells
Procedure: 5,000 CSES2 cells were plated in 50 μl per well of mTeSR1 medium into black 384-well clear-bottom plates (Falcon BD) pre-coated with Matrigel™ using WellMate cell dispenser (Matrix, Hudson, N.H.). 24 hours after plating, medium was replaced with 25 μl of fresh medium and 25 μl of 40 μM compound medium solutions in 1% DMSO from the intermediate compound dilution plates. The plates were incubated at 37° C., in a 5% CO2 atmosphere, for the entire duration of the screen, apart from the time required for liquid handling. […] 50 μl of CellTiter-Glo® reagent was added to each well of the assay plates and fully mixed. After incubation at room temperature for 15 minutes, 25 μl of liquid was transferred from each well into a white opaque-bottom 384-well plate (PerkinElmer), and luminescence was measured using an EnVision® plate reader (PerkinElmer). 16 neutral control wells (0.5% DMSO) and 8 positive control wells (5 μM amsacrine hydrochloride were used to normalize the compound effect. All liquid transfer steps were handled with a Biomek® FXP Laboratory Automation Workstation (Beckman Coulter, Fullerton, Calif.) and Muitidrop Combi liquid dispenser (Thermo Fisher, Waltham, Mass.). An Assay Analyzer (Genedata, Basel, Switzerland) was used for data pattern correction and calculation. The Spotfire software (Spotfire, Somerville, Mass.) was used for data illustration.
The compounds identified as hits from the primary screen were retested at a concentration of 20 μM against three pluripotent stem cell lines (CSES2, H9 and CSES2-SO2/3) for confirmation screens.
(§1) 696 confirmed hits from the confirmation screen were tested for profiling in a panel of 13 different cell types, using the same screening protocol described above (except in the case of embryonic stem cell-derived neural stem cells (NSCs) and mesenchymal stem cells (MSCs), for which the protocol is described below). As discussed below, compounds were tested either in dose-dependent multiple concentration manner or in single concentration manner. CSES2 and CSES2-SO2/3 cell lines and the early endodermal progenitors derived from this cell line (CSES2-SO2/3-differentiated) were screened at 8 concentrations ranging from 50 μM to 23 nM with 1:3 serial dilution steps. BJ-iPS28 cell line and the BJ fibroblasts from which it was derived were screened at 6 concentrations ranging from 50 μM to 200 nM with 1:3 serial dilution steps. Cardiomyocytes were screened in one concentration of 20 μM. HeLa and NTERA-2 cell lines were screened in duplicates of 20 μM. Kelly and Huh-7 were screened in triplicates of 20 μM. Hepatocytes were screened in duplicates of 20 μM in the original 96-well plates in which the cells arrived (40,000 cells per well, in 160 μl medium, the volumes of all reagents involved were adjusted accordingly). MSCs and NSCs were screened in duplicates of 12.5 μM.
The raw intensity data for each well were background-corrected by subtraction of the median intensities across all positive control wells on the same plate, and used to calculate the inhibitory effect of each compound per cell line. A Genedata Assay Analyzer and Condoseo were used for data pattern correction, calculation and IC50 curve fitting. A Z′ factor was determined for each plate.

[2] = system: neuroblastoma (Kelly) cells; test: CellTiter-Glo counter-screen, Kelly; type: cell-based; conditions: Homo sapiens, cancer cells
Procedure: The neuroblastoma cell line Kelly was cultured in RPMI-1640 medium, supplemented with 15% fetal bovine serum (FBS), penicillin (50 U/ml) and streptomycin (50 μg/ml).
as §1
In order to identify highly-selective cytotoxic inhibitors of hPSCs, the 696 cytotoxic inhibitors of hPSCs identified as described in Example 1 were counter-screened as described in the Materials and Methods section against other cell types, representative of all germ layers and developmental stages. Importantly, many of these cell types were differentiated from human ES or iPS cells. The screened cell types included ES-derived neural stem cells (NSCs), ES-derived mesenchymal stem cells (MSCs), ES-derived endodermal progenitor cells, ES-derived hepatocytes, iPS-derived cardiomyocytes, iPS-derived fibroblasts of origin (BJ fibroblasts), and three cancer cell lines: neuroblastoma (Kelly), cervical cancer (HeLa) and hepatocarcinoma (Huh7). The cell types and their relationship to stem cells are depicted schematically in FIG. 14.

[3] = target: T1, SCD1 (Homo sapiens, UniProt O00767); test: In vitro biochemical screen for SCD1 inhibitors; conditions: previous studies
T1 sequence (O00767 1-359): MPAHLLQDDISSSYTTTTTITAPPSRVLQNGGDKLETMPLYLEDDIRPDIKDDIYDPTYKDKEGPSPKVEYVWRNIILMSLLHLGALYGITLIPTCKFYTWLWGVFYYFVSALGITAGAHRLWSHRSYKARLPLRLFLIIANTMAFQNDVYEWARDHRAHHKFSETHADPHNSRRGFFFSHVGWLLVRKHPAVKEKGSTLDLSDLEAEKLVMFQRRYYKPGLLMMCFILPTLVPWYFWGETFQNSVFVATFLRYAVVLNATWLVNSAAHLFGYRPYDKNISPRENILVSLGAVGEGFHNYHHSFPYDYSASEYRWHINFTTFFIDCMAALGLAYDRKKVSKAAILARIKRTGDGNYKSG
From the text: Inhibition of SCD1 has been reported to induce ER stress and UPR in some human cancer cell lines, leading to apoptosis of these cells [Roongta et al., Molecular Cancer Research 9:1551-1561 (2011); Minville-Walz et al., PloS One 5:e14363 (2010); Scaglia et al., PloS One 4:e6812 (2009); Hess et al., PloS One 5:e1394 (2010); Morgan-Lappe et al., Cancer Research 67:4390-4398 (2007); Mason et al., PLoS One 7:e33823 (2012)].

[4] = system: human embryonic stem cells; test: Oleic acid rescue assay; type: cell-based; conditions: 20 μM PluriSIn (2 μM amsacrine); up to 100 μM BSA-OA
Procedure: Human embryonic stem cells were cultured without feeder cells in CELLSTAR® 24-well tissue culture plates (Greiner Bio-One) pre-coated with Matrigel™, using mTeSR1 defined medium. […] After 24 hours, the cells were subjected to microscopy imaging and to cell viability measurements.
In order to further investigate the effect of SCD activity on hPSC viability, the ability of exogenous supplementation of oleic acid (the direct product of SCD1) to rescue cells from PluriSIn-induced apoptosis was further studied, using procedures described in the Materials and Methods section. Cells were exposed to PluriSn #1 in the presence of increasing concentrations of BSA-conjugated oleic acid (BSA-OA).
For comparison, cells were exposed to 20 μM of PluriSIn #1, #2, #3 and #6 in the presence of 100 μM BSA-OA.

[5] = 24 h, read-out: EC50 CSES2 24 hours
[6] = 48 h, read-out: EC50 CSES2 48 hours

Row | Compound | EC50 [1, 5] | EC50 [1, 6] | inhibition at 20 µM [1] | inhibition at 20 µM [2] | SCD1 inhibition in an in vitro biochemical screen [3] | protection by BSA-conjugated oleic acid (BSA-OA) against cell death induced by the compound [4]
1 | O=C(NNc1ccccc1)c1ccncc1 [PluriSIn #1, isonicotinic acid N′-phenylhydrazide] | 1540 nM | 1990 nM | 92.1% | -2% | possible direct inhibitors of SCD1 | full rescue; also recorded: protected
2 | O=C(Nc1ccccc1)n1cc(F)c(=O)[nH]c1=O [PluriSIn #2] | 2030 nM | 2630 nM | 84% | 3% | – | –
3 | Nc1cc(N)cc(COc2ccc(-c3ccccc3)cc2)c1 [PluriSIn #3] | 2980 nM | 1320 nM | 98% | 2.3% | – | –
4 | O=C(NCCc1ccc(O)cc1)c1ccc(N2CCCCC2)cc1 [PluriSIn #4] | 1110 nM | 594 nM | 84.7% | 9.4% | – | –
5 | O=S(=O)(NNc1ccccc1)c1ccc2ccccc2c1 [PluriSIn #5] | 3060 nM | 1270 nM | 88.2% | 0.2% | – | protected
6 | Cc1ccc(NNC(=O)C(O)(c2ccccc2)c2cccs2)cc1 (centres unmarked) [PluriSIn #6, 2-hydroxy-2-(thiophen-2-yl)-2-phenylacetic acid 4-methyl-N′-phenylhydrazide] | 2550 nM | 1920 nM | 94.8% | 1.8% | possible direct inhibitors of SCD1 | protected
7 | CC(=O)Oc1ccc(/C=C/c2ccc3c(c2)CCN3C)cc1 [PluriSIn #7] | 1980 nM | 749 nM | 104% | 26.7% | – | –
8 | Cc1oc2ccccc2c1/C=N/Nc1ccccc1 [PluriSIn #8] | 2300 nM | 2390 nM | 98.6% | -1% | – | –
9 | C/C(=N\O)NNc1ccc(Cl)cc1 [PluriSIn #9] | 7960 nM | 2160 nM | 102% | 6% | – | –
10 | CCCCCC(=O)NNc1ccc(Cl)cc1 [PluriSIn #10] | 1670 nM | 2050 nM | 95% | 5.7% | – | –
11 | CCOC(=O)CN1CC(=O)/C(=C\NNc2ccccc2)C1=O [PluriSIn #11] | 3830 nM | 2580 nM | 98.8% | 3.3% | – | –
12 | CCN(CC)C(=O)C(=O)c1c(-c2ccccc2)[nH]c2c1sc1ccccc12 [PluriSIn #12] | 6850 nM | 5100 nM | 93% | -0.9% | – | –
13 | O=C1C=CC=C1/C=C/C(=N\Nc1ccccc1)c1ccccc1 [PluriSIn #13] | 1540 nM | 1910 nM | 101% | 17.5% | – | –
14 | O=C(NN(C(=O)c1ccccc1)c1ccccc1)c1ccc(Cl)cc1 [PluriSIn #14] | 2030 nM | 2900 nM | 90.1% | 0% | – | –
15 | C(=N\C1CCC(CC2CCCCC2)CC1)/OC1CCOC1 (centres unmarked) [PluriSIn #15] | 2980 nM | 3270 nM | 77.6% | 9.9% | – | –
